Source: US6723718B2, “Substituted α, β-anellated butyrolactones” (Bayer Aktiengesellschaft, priority 1998, dated 2004)

Key:
[1] = tested on: permanent focal cerebral ischaemia in the rat (MCA-O); experiment: Permanent focal cerebral ischaemia in the rat (MCA-O); type: in vivo; details: 0.01 mg/kg/h intravenous continuous infusion directly up to 4 hours after the occlusion, infarct size determined after 7 days
Description: Permanent Focal Cerebral Ischaemia in the Rat (MCA-O)
Under isoflurane anaesthesia, the middle cerebral artery is exposed on one side and the latter and its side branches are irreversibly sealed by means of electrocoagulation. As a result of the intervention a cerebral infarct is formed. During the operation, the body temperature of the animal is kept at 37° C. After wound closure and wearing off of the anaesthesia, the animals are again released into their cage. Substance administration is carried out according to different time schemes and via different administration routes (i.v., i.p.) after occlusion. The infarct size is determined after 7 days. To do this, the brain is removed, worked up histologically and the infarct volume is determined with the aid of a computer-assisted analysis system.

[2] = tested on: subdural haematoma in the rat (SDH); experiment: Subdural haematoma in the rat (SDH); type: in vivo; details: 0.01 mg/kg/h intravenous continuous infusion directly up to 4 hours post-trauma
Description: Subdural Haematoma in the Rat (SDH)
Under anaesthesia, the animal's own blood is injected subdurally on one side. An infarct is formed under the haematoma. Substance administration is earned out according to different time schemes and via different administration routes (i.v., i.p.).
The determination of the infarct size is carried out as described in the model of permanent focal ischaemia in the rat (MCA-O).

In the case of `C=C1C[C@@H]2COC(=O)[C@]2(Cc2ccc3ccccc3c2)C1` [Example 35], the “% reduction of infarct volume” value [1] is reported as 38% and the “% reduction of infarct volume” value [2] is reported as 51%.
